Experimental data taken from PubChem BioAssay AID2060903 (Molecular Pharmacology Branch, DTP, NCI, 2025).

System: 377384-186-R-J1-PDC complex spheroid viability
Assay: Anticancer human tumor 377384-186-R-J1-PDC patient-derived pancreatic carcinoma cell line growth inhibition [RAS]
Details: for IC50: curve of first compound; for viability, T/C: stronger effect = lower value
Method in brief: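 Multi-cell-type spheroids: tumor cells plus HUVEC endothelial cells and mesenchymal stem cells. RAS-pathway inhibitors were combined with targeted agents, each dosed in half-log steps down from clinical Cmax, or from 10 microM when Cmax was unknown.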
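Further: spheroids exposed to compounds for seven days before readout.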

Which results are given for CCc1c2c(nc3ccc(O)cc13)-c1cc3c(c(=O)n1C2)COC(=O)[C@]3(O)CC + CCn1c(-c2cccnc2C(C)OC)c2c3cc(ccc31)N1CCOC(CC(NC(=O)C(C(C)C)N(C)C(=O)C3(F)CCN(C(=O)C#CC(C)(C)N(C)C)CC3)C(=O)N3CCCC(N3)C(=O)OCC(C)(C)C2)C1?
IC50 (second compound 0.000949 µM): 2.42 nM; IC50 (second compound 0.003 µM): 2 nM; IC50 (second compound 0.00949 µM): 2 nM; IC50 (second compound 0.03 µM): 1.53 nM; IC50 (second compound 0.0949 µM): < 0.949 nM; IC50 (second compound 0.3 µM): < 0.949 nM; viability, T/C (second compound 0.000949 µM, first compound 0.000949 µM): 65.9%; viability, T/C (second compound 0.000949 µM, first compound 0.003 µM): 46.6%; viability, T/C (second compound 0.000949 µM, first compound 0.00949 µM): 18.3%; viability, T/C (second compound 0.000949 µM, first compound 0.03 µM): 7.36%; viability, T/C (second compound 0.000949 µM, first compound 0.0949 µM): 3.93%; viability, T/C (second compound 0.000949 µM, first compound 0.3 µM): 1.53%; viability, T/C (second compound 0.003 µM, first compound 0.000949 µM): 71.5%; viability, T/C (second compound 0.003 µM, first compound 0.003 µM): 37.9%; viability, T/C (second compound 0.003 µM, first compound 0.00949 µM): 19.8%; viability, T/C (second compound 0.003 µM, first compound 0.03 µM): 6.9%; viability, T/C (second compound 0.003 µM, first compound 0.0949 µM): 3.65%; viability, T/C (second compound 0.003 µM, first compound 0.3 µM): 2.05%; viability, T/C (second compound 0.00949 µM, first compound 0.000949 µM): 75.7%; viability, T/C (second compound 0.00949 µM, first compound 0.003 µM): 35.7%; viability, T/C (second compound 0.00949 µM, first compound 0.00949 µM): 15.8%; viability, T/C (second compound 0.00949 µM, first compound 0.03 µM): 5.59%; viability, T/C (second compound 0.00949 µM, first compound 0.0949 µM): 2.54%; viability, T/C (second compound 0.00949 µM, first compound 0.3 µM): 1.72%; viability, T/C (second compound 0.03 µM, first compound 0.000949 µM): 61.3%; viability, T/C (second compound 0.03 µM, first compound 0.003 µM): 34.7%; viability, T/C (second compound 0.03 µM, first compound 0.00949 µM): 14.4%; viability, T/C (second compound 0.03 µM, first compound 0.03 µM): 8.65%; viability, T/C (second compound 0.03 µM, first compound 0.0949 µM): 3.55%; viability, T/C (second compound 0.03 µM, first compound 0.3 µM): 1.17%; viability, T/C (second compound 0.0949 µM, first compound 0.000949 µM): 49.1%; viability, T/C (second compound 0.0949 µM, first compound 0.003 µM): 34.9%; viability, T/C (second compound 0.0949 µM, first compound 0.00949 µM): 14.8%; viability, T/C (second compound 0.0949 µM, first compound 0.03 µM): 5.24%; viability, T/C (second compound 0.0949 µM, first compound 0.0949 µM): 3.02%; viability, T/C (second compound 0.0949 µM, first compound 0.3 µM): 1.67%; viability, T/C (second compound 0.3 µM, first compound 0.000949 µM): 45.4%; viability, T/C (second compound 0.3 µM, first compound 0.003 µM): 30.3%; viability, T/C (second compound 0.3 µM, first compound 0.00949 µM): 7.93%; viability, T/C (second compound 0.3 µM, first compound 0.03 µM): 4.05%; viability, T/C (second compound 0.3 µM, first compound 0.0949 µM): 2.71%; viability, T/C (second compound 0.3 µM, first compound 0.3 µM): 1.08%

With Nc1ccn(C2OC(CO)C(O)C2(F)F)c(=O)n1 (centres undefined) + CCn1c(-c2cccnc2C(C)OC)c2c3cc(ccc31)N1CCOC(CC(NC(=O)C(C(C)C)N(C)C(=O)C3(F)CCN(C(=O)C#CC(C)(C)N(C)C)CC3)C(=O)N3CCCC(N3)C(=O)OCC(C)(C)C2)C1 as the molecule, how does the IC50 (second compound 0.000949 µM) read?
Its IC50 is 11.3 nM.

And the IC50 (second compound 0.003 µM)?
The IC50 was 9.69 nM.

What about the IC50 (second compound 0.00949 µM) of the same molecule?
Its IC50 is 12.6 nM.

What about the IC50 (second compound 0.03 µM) of the same molecule?
The IC50 was 11.8 nM.

What about the IC50 (second compound 0.0949 µM) of the same molecule?
Its IC50 is 9.29 nM.

What about the IC50 (second compound 0.3 µM) of the same molecule?
The IC50 was 7.06 nM.

And the viability, T/C (second compound 0.000949 µM, first compound 0.00316 µM)?
Its viability, T/C is 87.1%.

And the viability, T/C (second compound 0.000949 µM, first compound 0.01 µM)?
Its viability, T/C is 53.8%.

And the viability, T/C (second compound 0.000949 µM, first compound 0.0316 µM)?
The viability, T/C was 19.4%.

What about the viability, T/C (second compound 0.000949 µM, first compound 0.1 µM) of the same molecule?
The viability, T/C was 7.57%.

And the viability, T/C (second compound 0.000949 µM, first compound 0.316 µM)?
The viability, T/C was 5.68%.

What about the viability, T/C (second compound 0.000949 µM, first compound 1 µM) of the same molecule?
Its viability, T/C is 3.18%.

And the viability, T/C (second compound 0.003 µM, first compound 0.00316 µM)?
Its viability, T/C is 94.7%.

What about the viability, T/C (second compound 0.003 µM, first compound 0.01 µM) of the same molecule?
Its viability, T/C is 48.4%.

What about the viability, T/C (second compound 0.003 µM, first compound 0.0316 µM) of the same molecule?
The viability, T/C was 23.4%.

And the viability, T/C (second compound 0.003 µM, first compound 0.1 µM)?
The viability, T/C was 9.1%.

And the viability, T/C (second compound 0.003 µM, first compound 0.316 µM)?
Its viability, T/C is 4.5%.

And the viability, T/C (second compound 0.003 µM, first compound 1 µM)?
Its viability, T/C is 3.68%.

And the viability, T/C (second compound 0.00949 µM, first compound 0.00316 µM)?
The viability, T/C was 96.1%.

What about the viability, T/C (second compound 0.00949 µM, first compound 0.01 µM) of the same molecule?
The viability, T/C was 57.7%.

And the viability, T/C (second compound 0.00949 µM, first compound 0.0316 µM)?
Its viability, T/C is 19.2%.

What about the viability, T/C (second compound 0.00949 µM, first compound 0.1 µM) of the same molecule?
Its viability, T/C is 8.08%.

What about the viability, T/C (second compound 0.00949 µM, first compound 0.316 µM) of the same molecule?
The viability, T/C was 5.38%.

And the viability, T/C (second compound 0.00949 µM, first compound 1 µM)?
The viability, T/C was 4.57%.

What about the viability, T/C (second compound 0.03 µM, first compound 0.00316 µM) of the same molecule?
The viability, T/C was 90.9%.

And the viability, T/C (second compound 0.03 µM, first compound 0.01 µM)?
The viability, T/C was 55.3%.

What about the viability, T/C (second compound 0.03 µM, first compound 0.0316 µM) of the same molecule?
Its viability, T/C is 17.6%.

What about the viability, T/C (second compound 0.03 µM, first compound 0.1 µM) of the same molecule?
Its viability, T/C is 5.8%.

And the viability, T/C (second compound 0.03 µM, first compound 0.316 µM)?
Its viability, T/C is 5.88%.

What about the viability, T/C (second compound 0.03 µM, first compound 1 µM) of the same molecule?
Its viability, T/C is 3.65%.

And the viability, T/C (second compound 0.0949 µM, first compound 0.00316 µM)?
The viability, T/C was 79.1%.

What about the viability, T/C (second compound 0.0949 µM, first compound 0.01 µM) of the same molecule?
Its viability, T/C is 47.8%.

What about the viability, T/C (second compound 0.0949 µM, first compound 0.0316 µM) of the same molecule?
The viability, T/C was 20.1%.

And the viability, T/C (second compound 0.0949 µM, first compound 0.1 µM)?
Its viability, T/C is 7.12%.

And the viability, T/C (second compound 0.0949 µM, first compound 0.316 µM)?
Its viability, T/C is 4.37%.

What about the viability, T/C (second compound 0.0949 µM, first compound 1 µM) of the same molecule?
The viability, T/C was 4.2%.

And the viability, T/C (second compound 0.3 µM, first compound 0.00316 µM)?
Its viability, T/C is 71.9%.

And the viability, T/C (second compound 0.3 µM, first compound 0.01 µM)?
Its viability, T/C is 40.6%.

What about the viability, T/C (second compound 0.3 µM, first compound 0.0316 µM) of the same molecule?
Its viability, T/C is 13%.

And the viability, T/C (second compound 0.3 µM, first compound 0.1 µM)?
The viability, T/C was 5.77%.

And the viability, T/C (second compound 0.3 µM, first compound 0.316 µM)?
The viability, T/C was 4.01%.

And the viability, T/C (second compound 0.3 µM, first compound 1 µM)?
The viability, T/C was 3.34%.
